These results are taken from patent US20220304946A1 (priority 2021, published 2022).

Structures are written as SMILES. Entries after “also recorded” stand apart in the source; their conditions may differ. Where two headings read alike, the source gives them in different places. Where a SMILES comes first, the peptide text is derived from it. Bridges are numbered along the chain shown (N, C = ends). [ ]: non-standard residue; d: D form. The star is where a group is joined. Ileψ(thiazoline)Cys = CC[C@H](C)[C@H](N)C1=N[C@H](C(=O)*)CS1; dOrn = NCCC[C@@H](N)C(=O)O

The target in test [1] is prolyl endopeptidase (PEP) (UniProt P27028). Briefly: PEP inhibitory activity assay (modified Yoshimoto et al. method, Z-Gly-Pro-pNA substrate). The format is biochemical. The method, then: PEP inhibitory activity was evaluated with minor modification of the Yoshimoto et al. method. Briefly, 150 μL of sodium phosphate buffer (50 mM, pH 7.0), and 10 μL of the test compound (0.5 mM in DMSO) were added into a 96-well plate, followed by adding 20 μL solution containing 0.02 units of PEP enzyme. In the Blank reaction, 20 μL of DMSO was added instead of the test compound, while bacitracin (0.5 mM) was used as the positive control. The incubation of the reaction mixture was carried out for 15 min at 30° C. after which a pre-read was taken at 410 nm. Next, 0.4 mM solution of Z-Gly-Pro-pNA was formed in aqueous 1,4-dioxane (40%), followed by taking the optical density (O.D.) of the reaction mixture at a wavelength of 410 nm for 40 min using a 96-well plate reader (SpectraMax-384, Molecular Devices, CA, USA).
Each reaction was repeated thrice and the differences in the results of each experiment were collectively expressed as the standard error of the mean (SEM).
% Inhibition=100−(O.D. test compound/O.D. Control)×100

Test [2] shares this target. Briefly: Kinetic assay of PEP inhibition (Lineweaver-Burk and Dixon plots). The format is biochemical. How it is done:
That in which way it inhibits the PEP catalytic activity i.e. competitive inhibition, non-competitive inhibition, mixed or uncompetitive inhibition. […] The reaction was started post adding four various concentrations of Z-Gly-Pro-pNA (0.2 mM to 0.5 mM). The PEP enzymatic catalysis was assessed at 410 nm via a 96-well plate reader.
Next, using the obtained O.D. results, the Lineweaver-Burk and Dixon plot was generated.
Grafit version-7 (Erithacus Software Limited, UK) was employed for the Kinetic studies.

prolyl endopeptidase (PEP), sequence (P27028 whole entry): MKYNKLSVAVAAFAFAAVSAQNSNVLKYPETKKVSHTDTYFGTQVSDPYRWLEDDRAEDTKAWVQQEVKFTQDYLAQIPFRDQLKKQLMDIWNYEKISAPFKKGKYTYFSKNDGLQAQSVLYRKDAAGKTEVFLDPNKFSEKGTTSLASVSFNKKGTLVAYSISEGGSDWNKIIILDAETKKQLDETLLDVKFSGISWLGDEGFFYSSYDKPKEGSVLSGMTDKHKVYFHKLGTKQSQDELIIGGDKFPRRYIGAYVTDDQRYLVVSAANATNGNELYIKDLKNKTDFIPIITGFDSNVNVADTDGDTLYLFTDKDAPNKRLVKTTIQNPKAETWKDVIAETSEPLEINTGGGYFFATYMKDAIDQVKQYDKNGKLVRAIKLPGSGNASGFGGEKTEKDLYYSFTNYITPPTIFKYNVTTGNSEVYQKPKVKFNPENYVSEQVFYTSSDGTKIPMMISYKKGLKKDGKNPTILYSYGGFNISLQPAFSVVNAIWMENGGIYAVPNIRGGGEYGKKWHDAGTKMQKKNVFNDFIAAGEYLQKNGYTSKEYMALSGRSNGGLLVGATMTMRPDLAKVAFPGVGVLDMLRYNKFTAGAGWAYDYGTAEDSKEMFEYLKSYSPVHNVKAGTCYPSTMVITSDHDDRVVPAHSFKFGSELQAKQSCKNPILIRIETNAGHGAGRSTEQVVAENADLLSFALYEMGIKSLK

Broadly, the IC50 is the midpoint of a concentration-inhibition curve. As to `CC[C@H](C)[C@H](N)C1=N[C@H](C(=O)N[C@@H](CC(C)C)C(=O)N[C@H](CCC(=O)O)C(=O)N[C@H](C(=O)N[C@H]2CCCCNC(=O)[C@H](CC(N)=O)NC(=O)[C@@H](CC(=O)O)NC(=O)[C@H](Cc3cnc[nH]3)NC(=O)[C@@H](Cc3ccccc3)NC(=O)[C@H]([C@@H](C)CC)NC(=O)[C@@H](CCCN)NC2=O)[C@@H](C)CC)CS1` [bacitracin, reference compound] ({Ileψ(thiazoline)Cys}-L[dE]IK[dOrn]I[dF]H[dD]N; lactam 4-C), the IC50 in test [1] (mean ± SEM, repeated thrice; 30° C., pH 7.0; read-out: PEP inhibitory activity IC50) stood at 114 ± 1.2 µM.

Broadly, the Ki is the dissociation constant of the complex between target and ligand, obtained from inhibition or displacement. On to `C/C=C/c1ccc(OC)cc1` [trans-anethole, (E)-1-Methoxy-4-(1-propenyl) benzene], for which the IC50 in test [1] (read-out: PEP inhibitory activity IC50; mean ± SEM, repeated thrice; 30° C., pH 7.0) was 5.7 ± 1.2 µM. For the same compound, the “type of PEP inhibition” value in test [2] (Lineweaver-Burk / Dixon plot) is on record as “competitively inhibited; also recorded: competitive”. Besides, in test [2] (read-out: Ki value, Lineweaver-Burk plot, reconfirmed by Dixon plot), the Ki amounted to 5.656 ± 0.03 µM.
